Test results published in US8637550B2, “Heteroaryl diamide compounds useful as MMP-13 inhibitors” (Boehringer Ingelheim International GmbH, priority 2008, dated 2014).
pIC50: −log10 of the molar value.

biological target: MMP-13 (Homo sapiens, UniProt P45452); test: EnzoLyte 520 Generic MMP Assay Kit, 5-FAM/QXL520 FRET peptide substrate; format: biochemical
Excerpt: The EnzoLyte™ 520 Generic MMP Assay Kit (AnaSpec Inc.) can detect the activity of several MMPs including MMP-1, 2, 3, 7, 8, 9, 13, and 14. This kit uses a 5-FAM/QXL™520 fluorescence resonance energy transfer (FRET) peptide as an MMP substrate.

Row | Compound | pIC50
1 | CNC(=O)[C@@H](NC(=O)c1ccc(-c2ccc(NC(=O)c3cncc(C)c3)cc2)o1)C1CCCCC1 [N-[4-(5-{[(1S)-1-cyclohexyl-2-(methylamino)-2-oxoethyl]carbamoyl}furan-2-yl)phenyl]-5-methylpyridine-3-carboxamide] | 6.82
2 | CNC(=O)[C@@H](NC(=O)c1ccc(-c2ccc(NC(=O)c3cccc(C)n3)cc2)o1)C1CCCCC1 [N-[4-(5-{[(1S)-1-cyclohexyl-2-(methylamino)-2-oxoethyl]carbamoyl}furan-2-yl)phenyl]-6-methylpyridine-2-carboxamide] | 7.77
3 | CNC(=O)[C@@H](NC(=O)c1ccc(-c2ccc(NC(=O)c3cn4cccc(C)c4n3)cc2)o1)C1CCCCC1 [N-[4-(5-{[(1S)-1-cyclohexyl-2-(methylamino)-2-oxoethyl]carbamoyl}furan-2-yl)phenyl]-8-methylimidazo[1,2-a]pyridine-2-carboxamide] | 7.00
4 | CNC(=O)[C@@H](NC(=O)c1ccc(-c2ccc(NC(=O)c3cn4ccccc4n3)cc2)o1)C1CCCCC1 [N-[4-(5-{[(1S)-1-cyclohexyl-2-(methylamino)-2-oxoethyl]carbamoyl}furan-2-yl)phenyl]imidazo[1,2-a]pyridine-2-carboxamide] | 6.96
5 | Cc1cccc(C(=O)Nc2ccc(-c3ccc(C(=O)N[C@H](C(=O)NC[C@@H](C)O)C4CCCCC4)o3)cc2)n1 [N-[4-(5-{[(1S)-1-cyclohexyl-2-{[(2R)-2-hydroxypropyl]amino}-2-oxoethyl]carbamoyl}furan-2-yl)phenyl]-6-methylpyridine-2-carboxamide] | 7.66
6 | COC[C@H](C)NC(=O)[C@@H](NC(=O)c1ccc(-c2ccc(NC(=O)c3cccc(C)n3)cc2)o1)C1CCCCC1 [N-[4-(5-{[(1S)-1-cyclohexyl-2-{[(2S)-1-methoxypropan-2-yl]amino}-2-oxoethyl]carbamoyl}furan-2-yl)phenyl]-6-methylpyridine-2-carboxamide] | 7.49
7 | Cc1cccc(C(=O)Nc2ccc(-c3ccc(C(=O)N[C@H](C(=O)NC[C@H](C)O)C4CCCCC4)o3)cc2)n1 [N-[4-(5-{[(1S)-1-cyclohexyl-2-{[(2S)-2-hydroxypropyl]amino}-2-oxoethyl]carbamoyl}furan-2-yl)phenyl]-6-methylpyridine-2-carboxamide] | 7.64
8 | CNC(=O)[C@@H](NC(=O)c1ccc(-c2ccc(NC(=O)c3cccc(C)n3)cc2)o1)C1CC1 [N-[4-(5-{[(1S)-1-cyclopropyl-2-(methylamino)-2-oxoethyl]carbamoyl}furan-2-yl)phenyl]-6-methylpyridine-2-carboxamide] | 7.16
9 | CNC(=O)[C@@H](NC(=O)c1ccc(-c2ccc(NC(=O)c3cc4ccccc4o3)cn2)o1)C1CCCCC1 [N-[6-(5-{[(1S)-1-cyclohexyl-2-(methylamino)-2-oxoethyl]carbamoyl}furan-2-yl)pyridin-3-yl]-1-benzofuran-2-carboxamide] | 7.52
10 | CNC(=O)[C@@H](NC(=O)c1ccc(-c2ccc(NC(=O)c3cccc(C)n3)cn2)o1)C1CCCCC1 [N-[6-(5-{[(1S)-1-cyclohexyl-2-(methylamino)-2-oxoethyl]carbamoyl}furan-2-yl)pyridin-3-yl]-6-methylpyridine-2-carboxamide] | 8.15
11 | CNC(=O)[C@@H](NC(=O)c1ccc(-c2ccc([N+](=O)[O-])cc2)o1)C1CCCCC1 [N-[(1S)-1-cyclohexyl-2-(methylamino)-2-oxoethyl)-5-(4-nitrophenyl)furan-2-carboxamide] | 6.33
12 | CNC(=O)[C@@H](NC(=O)c1ccc(-c2ccc([N+](=O)[O-])cn2)o1)C1CCCCC1 [N-[(1S)-1-cyclohexyl-2-(methylamino)-2-oxoethyl)-5-(5-nitropyridin-2-yl)furan-2-carboxamide] | 7.13
13 | CNC(=O)[C@@H](NC(=O)c1ccc(-c2cccc(CNC(=O)C(C)C)c2)o1)C1CCCCC1 [N-[(1S)-1-cyclohexyl-2-(methylamino)-2-oxoethyl]-5-(3-{[(2-methylpropanoyl)amino]methyl}phenyl)furan-2-carboxamide] | 6.80
14 | CNC(=O)[C@@H](NC(=O)c1ccc(-c2cccc(CNC(=O)C3CC3)c2)o1)C1CCCCC1 [N-[(1S)-1-cyclohexyl-2-(methylamino)-2-oxoethyl]-5-(3-{[(cyclopropylcarbonyl)amino]methyl}phenyl)furan-2-carboxamide] | 6.40
15 | CNC(=O)[C@@H](NC(=O)c1ccc(-c2cccc(CNC(=O)c3ccco3)c2)o1)C1CCCCC1 [N-[(1S)-1-cyclohexyl-2-(methylamino)-2-oxoethyl]-5-(3-{[(furan-2-ylcarbonyl)amino]methyl}phenyl)furan-2-carboxamide] | 7.12
16 | CNC(=O)[C@@H](NC(=O)c1ccc(-c2cccc(CNC(=O)NC(C)C)c2)o1)C1CCCCC1 [N-[(1S)-1-cyclohexyl-2-(methylamino)-2-oxoethyl]-5-(3-{[(propan-2-ylcarbamoyl)amino]methyl}phenyl)furan-2-carboxamide] | 6.69
17 | CCOc1ccc(-c2ccc(C(=O)N[C@H](C(=O)NC)C3CCCCC3)o2)cc1 [N-[(1S)-1-cyclohexyl-2-(methylamino)-2-oxoethyl]-5-(4-ethoxyphenyl)furan-2-carboxamide] | 6.57
18 | CCc1ccc(-c2ccc(C(=O)N[C@H](C(=O)NC)C3CCCCC3)o2)cc1 [N-[(1S)-1-cyclohexyl-2-(methylamino)-2-oxoethyl]-5-(4-ethylphenyl)furan-2-carboxamide] | 6.50
19 | CNC(=O)[C@@H](NC(=O)c1ccc(-c2ccc(C)cc2)o1)C1CCCCC1 [N-[(1S)-1-cyclohexyl-2-(methylamino)-2-oxoethyl]-5-(4-methylphenyl)furan-2-carboxamide] | 6.54
20 | CNC(=O)[C@@H](NC(=O)c1ccc(-c2ccc(CNC(=O)C3CC3)cc2)o1)C1CCCCC1 [N-[(1S)-1-cyclohexyl-2-(methylamino)-2-oxoethyl]-5-(4-{[(cyclopropylcarbonyl)amino]methyl}phenyl)furan-2-carboxamide] | 6.37
21 | CCOc1ccc(-c2ccc(C(=O)N[C@H](C(=O)NC)C3CCCCC3)o2)nc1 [N-[(1S)-1-cyclohexyl-2-(methylamino)-2-oxoethyl]-5-(5-ethoxypyridin-2-yl)furan-2-carboxamide] | 7.49

Results, then the compound that gave them:

Row | pIC50 | Compound
22 | 6.48 | CNC(=O)[C@@H](NC(=O)c1ccc(-c2cccc(CNC(=O)c3ccoc3C)c2)o1)C1CCCCC1 [N-[(1S)-1-cyclohexyl-2-(methylamino)-2-oxoethyl]-5-[3-({[(2-methylfuran-3-yl)carbonyl]amino}methyl)phenyl]furan-2-carboxamide]
23 | 7.30 | CNC(=O)[C@@H](NC(=O)c1ccc(-c2cccc(CNC(=O)c3cc(C)c(C)s3)c2)o1)C1CCCCC1 [N-[(1S)-1-cyclohexyl-2-(methylamino)-2-oxoethyl]-5-[3-({[(4,5-dimethylthiophen-2-yl)carbonyl]amino}methyl)phenyl]furan-2-carboxamide]
24 | 7.60 | CNC(=O)[C@@H](NC(=O)c1ccc(-c2ccc(-c3cnn(C)c3)cc2)o1)C1CCCCC1 [N-[(1S)-1-cyclohexyl-2-(methylamino)-2-oxoethyl]-5-[4-(1-methyl-1H-pyrazol-4-yl)phenyl]furan-2-carboxamide]
25 | 6.32 | CNC(=O)[C@@H](NC(=O)c1ccc(-c2ccc(S(=O)(=O)NC)cc2)o1)C1CCCCC1 [N-[(1S)-1-cyclohexyl-2-(methylamino)-2-oxoethyl]-5-[4-(methylsulfamoyl)phenyl]furan-2-carboxamide]
26 | 6.76 | CNC(=O)[C@@H](NC(=O)c1ccc(-c2ccc(SC)cc2)o1)C1CCCCC1 [N-[(1S)-1-cyclohexyl-2-(methylamino)-2-oxoethyl]-5-[4-(methylsulfanyl)phenyl]furan-2-carboxamide]
27 | 8.22 | CNC(=O)[C@@H](NC(=O)c1ccc(-c2ccc(OCc3ccn[nH]3)cn2)o1)C1CCCCC1 [N-[(1S)-1-cyclohexyl-2-(methylamino)-2-oxoethyl]-5-[5-(1H-pyrazol-5-ylmethoxy)pyridin-2-yl]furan-2-carboxamide]
28 | 7.68 | CNC(=O)[C@@H](NC(=O)c1ccc(-c2ccc(OCc3ccccn3)cn2)o1)C1CCCCC1 [N-[(1S)-1-cyclohexyl-2-(methylamino)-2-oxoethyl]-5-[5-(pyridin-2-ylmethoxy)pyridin-2-yl]furan-2-carboxamide]
29 | 8.70 | CNC(=O)[C@@H](NC(=O)c1ccc(-c2ccc(OCc3cccnc3)cn2)o1)C1CCCCC1 [N-[(1S)-1-cyclohexyl-2-(methylamino)-2-oxoethyl]-5-[5-(pyridin-3-ylmethoxy)pyridin-2-yl]furan-2-carboxamide]
30 | 9.00 | CNC(=O)[C@@H](NC(=O)c1ccc(-c2ccc(OCc3ccncc3)cn2)o1)C1CCCCC1 [N-[(1S)-1-cyclohexyl-2-(methylamino)-2-oxoethyl]-5-[5-(pyridin-4-ylmethoxy)pyridin-2-yl]furan-2-carboxamide]
31 | 6.34 | CNC(=O)[C@@H](NC(=O)c1ccc(-c2ccc(NS(C)(=O)=O)cc2)o1)C1CCCCC1 [N-[(1S)-1-cyclohexyl-2-(methylamino)-2-oxoethyl]-5-{4-[(methylsulfonyl)amino]phenyl}furan-2-carboxamide]
32 | 7.72 | CNC(=O)[C@@H](NC(=O)c1ccc(-c2ccc(OCc3c[nH]cn3)cn2)o1)C1CCCCC1 [N-[(1S)-1-cyclohexyl-2-(methylamino)-2-oxoethyl]-5-{5-(1H-imidazol-5-ylmethoxy)pyridin-2-yl]furan-2-carboxamide]
33 | 8.40 | CNC(=O)[C@@H](NC(=O)c1ccc(-c2ccc(OCc3cc(C)n(C)n3)cn2)o1)C1CCCCC1 [N-[(1S)-1-cyclohexyl-2-(methylamino)-2-oxoethyl]-5-{5-[(1,5-dimethyl-1H-pyrazol-3-yl)methoxy]pyridin-2-yl}furan-2-carboxamide]
34 | 6.92 | CNC(=O)[C@@H](NC(=O)c1ccc(-c2ccc(OCc3cn(C)cn3)cn2)o1)C1CCCCC1 [N-[(1S)-1-cyclohexyl-2-(methylamino)-2-oxoethyl]-5-{5-[(1-methyl-1H-imidazol-4-yl)methoxy]pyridin-2-yl}furan-2-carboxamide]
